This note sets out measurements from ChEMBL document CHEMBL3352132, “Synthesis, screening and docking of small heterocycles as glycogen phosphorylase inhibitors” (Eur J Med Chem, 2014).

pIC50: −log10 of the molar value. The source made the active and inactive calls. The rule behind the calls is not given here.

Test [1] deals with T1, Glycogen phosphorylase, muscle form (Oryctolagus cuniculus) (UniProt P00489).
T1 sequence (whole entry): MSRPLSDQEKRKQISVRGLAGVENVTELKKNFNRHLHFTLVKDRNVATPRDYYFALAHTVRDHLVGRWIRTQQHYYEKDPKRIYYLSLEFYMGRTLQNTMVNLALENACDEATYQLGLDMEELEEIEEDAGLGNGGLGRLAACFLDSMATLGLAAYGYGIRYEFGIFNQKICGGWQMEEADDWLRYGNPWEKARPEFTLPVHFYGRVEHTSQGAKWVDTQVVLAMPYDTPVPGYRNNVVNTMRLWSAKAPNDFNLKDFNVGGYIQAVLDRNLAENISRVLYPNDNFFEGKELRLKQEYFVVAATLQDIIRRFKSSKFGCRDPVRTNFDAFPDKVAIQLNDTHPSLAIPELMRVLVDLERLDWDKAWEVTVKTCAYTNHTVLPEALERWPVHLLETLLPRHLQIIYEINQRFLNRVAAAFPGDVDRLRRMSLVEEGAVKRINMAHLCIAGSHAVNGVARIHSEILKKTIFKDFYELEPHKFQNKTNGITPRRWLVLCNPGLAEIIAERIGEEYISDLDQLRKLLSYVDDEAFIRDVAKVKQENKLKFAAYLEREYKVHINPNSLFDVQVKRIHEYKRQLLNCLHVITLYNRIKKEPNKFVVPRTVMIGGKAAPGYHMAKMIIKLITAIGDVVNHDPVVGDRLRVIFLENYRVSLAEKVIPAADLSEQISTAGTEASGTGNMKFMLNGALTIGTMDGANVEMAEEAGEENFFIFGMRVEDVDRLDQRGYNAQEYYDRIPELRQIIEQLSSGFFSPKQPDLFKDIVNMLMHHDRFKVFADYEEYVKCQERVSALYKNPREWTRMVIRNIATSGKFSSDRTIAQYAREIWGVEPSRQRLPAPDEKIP
The test can be described thus: Inhibition of rabbit muscle glycogen phosphorylase a assessed as inhibition of release of phosphate from glucose-1-phosphate at 222 mM after 30 mins by spectrophotometry.

In test [2] the target is T1, Glycogen phosphorylase, muscle form (Oryctolagus cuniculus). Put plainly: Inhibition of rabbit muscle glycogen phosphorylase a assessed as inhibition of release of phosphate from glucose-1-phosphate at 56 mM after 30 mins by spectrophotometry.
The target of test [3] is T2, Glycogen phosphorylase, muscle form (Oryctolagus cuniculus, UniProt P00489).
T2 sequence (P00489 whole entry): T1 sequence (whole entry)
The test can be described thus: (§1) Inhibition of rabbit muscle glycogen phosphorylase a assessed as inhibition of release of phosphate from glucose-1-phosphate after 30 mins by spectrophotometry.

Test [4] deals with T1, Glycogen phosphorylase, muscle form (Oryctolagus cuniculus). Put plainly: Inhibition of rabbit muscle glycogen phosphorylase a assessed as inhibition of release of phosphate from glucose-1-phosphate at 22 mM after 30 mins by spectrophotometry.
For test [5] the target is unchanged. Put plainly: Inhibition of rabbit muscle glycogen phosphorylase a assessed as inhibition of release of phosphate from glucose-1-phosphate at 111 mM after 30 mins by spectrophotometry.
Test [6] shares this target. The test is described as §1.

Regarding `NC(CCC(=O)O)C(=O)N1CCOCC1` (stereo unspecified), in test [1], the inhibition was found to be 25%.

For `O=C(NCCCCC(NC(=O)OCc1ccccc1)C(=O)N1CCOCC1)OCc1ccccc1` (stereo unspecified), the inhibition in test [1] worked out at 5%.

As to `O=[N+]([O-])c1ccc(C2=NCCO2)cc1`, in test [2], the inhibition was found to be 94%.

Consider `CC(C)N1CCCN=C1c1ccccc1`, for which the pIC50 in test [3] was 2.14.

On to `c1ccc(C2=NCCS2)cc1`, for which the inhibition in test [4] is 39%.

Consider `c1ccc(C2=NCCCCN2)cc1`, for which the negative-log IC50 (pIC50) in test [3] was 2.52.

`CC1CN=C(c2ccccc2)O1` (stereo unspecified): in test [5], the inhibition was found to be 78%.

Consider `CC1(C)CN=C(c2ccccc2)NC1`, for which the pIC50 in test [3] was 2.92.

In the case of `O=C(NC(Cc1ccccc1)C(=O)N1CCOCC1)OCc1ccccc1` (stereo unspecified), the result in test [6] was inactive.

In the case of `CC(C)CC(NC(=O)OCc1ccccc1)C(=O)N1CCOCC1` (stereo unspecified), the result in test [6] was inactive.

Turning to `NCCCCC(N)C(=O)N1CCOCC1` (stereo unspecified), in test [6], the outcome was inactive.

On to `c1ccc(C2=NCCO2)cc1`, for which the pIC50 in test [3] was 1.62.

Take `CC(C)(C)OC(=O)NC(CCC(=O)O)C(=O)N1CCOCC1` (stereo unspecified): the inhibition in test [5] was 12%.

Regarding `c1ccc(C2=NCCCN2)cc1`, in test [1], the inhibition stood at 99%.

With `c1ccc(C2=NC3CCCCC3N2)cc1` (stereo unspecified), the pIC50 in test [3] is 2.11.

For `CC(C)CC(N)C(=O)N1CCOCC1` (stereo unspecified), the pIC50 in test [3] was 2.19.

`NC(Cc1ccccc1)C(=O)N1CCOCC1` (stereo unspecified): the inhibition in test [1] amounted to 20%.

With `c1ccc(C2=NCCCCO2)cc1`, the pIC50 in test [3] is 2.85.

With `c1ccc(C2=NCCCO2)cc1`, the inhibition in test [5] turned out to be 39%.

As for `CC(C)(C)OC(=O)N1CCCN=C1c1ccccc1`, in test [3], the pIC50 was 2.96.

As to `COC(=O)[C@@H]1CSC(c2ccccc2)=N1`, the pIC50 in test [3] is 4.60.

In general, inhibition refers to the drop in the measured response relative to a control, in per cent. In general, pIC50 refers to the IC50 on a negative log10 scale, so that one unit is a factor of ten.
